Experiment [1] has as its system GSPO1 cells (Thyroid cancer; Papillary). As to the kind of experiment: Cell proliferation IC50 (MTT), patient-derived papillary thyroid cancer cells GSPO1 (first line). The class given is cell-based. Particulars: Homo sapiens, adult patient, by order of Table 3, PTC stage IV, mean ± SEM, read-out: cell proliferation IC50 - half maximal inhibitory concentration.
Experiment [2] has as its system GSPY2 cells (Thyroid cancer; Papillary). As to the kind of experiment: Cell proliferation IC50 (MTT), patient-derived papillary thyroid cancer cells GSPY2. The class given is cell-based. Particulars: Homo sapiens, PTC stage IV, mean ± SEM, read-out: cell proliferation IC50 - half maximal inhibitory concentration.
Experiment [3] deals with EMT protein (e.g. Snail, Zeb1) (EMT 단백질). As to the kind of experiment: EMT protein expression in young-patient-derived cancer cells. The class given is cell-based, human. Particulars: young-patient-derived cancer cell lines.
The test system of experiment [4] is GSPO1 cells (Thyroid cancer; Papillary). As to the kind of experiment: Cell proliferation IC50 (MTT), patient-derived papillary thyroid cancer cells GSPO1 (second line of the same label). The class given is cell-based. The conditions noted are these: Homo sapiens, adult patient, by order of Table 3, PTC stage IV, mean ± SEM, read-out: cell proliferation IC50 - half maximal inhibitory concentration.

Experiment [5] deals with GSPY1 cells (Thyroid cancer; Papillary). As to the kind of experiment: Cell proliferation IC50 (MTT), patient-derived papillary thyroid cancer cells GSPY1. The conditions noted are these: Homo sapiens, PTC stage IV, mean ± SEM, read-out: cell proliferation IC50 - half maximal inhibitory concentration. The class given is cell-based.
Experiment [6] deals with cancer cells from young patients (어린 환자의 암 세포). As to the kind of experiment: Cell count over 7 days after drug treatment, young-patient papillary thyroid cancer cells. The conditions noted are these: unlike sorafenib, Figs. 4 to 7. The class given is cell-based, human.
In experiment [7] the test system is FGFR signaling (e.g. PKC, MEK, p-ERK) (FGFR 시그널링). As to the kind of experiment: FGFR signaling in young-patient-derived cancer cells. The class given is cell-based, human. The conditions noted are these: young-patient-derived cancer cell lines.

This note sets out measurements from patent KR20210106935A, “암의 예방 또는 치료용 조성물” (연세대학교 산학협력단, priority 2019, dated 2021).

Each structure is given as a SMILES string. pIC50: −log10 of the molar value.

On to `CCN(CC)C(=S)SSC(=S)N(CC)CC` [Disulfiram, 디에틸카르바모티올설파닐 N,N-디에틸카르바모디티오에이트], for which the pIC50 in experiment [1] was 6.66; in experiment [2] it was 6.52; in experiment [4], 6.68; in experiment [5], 6.52. Moreover, the “effect on EMT protein expression” value in experiment [3] is recorded as “EMT 단백질의 발현(예를 들면, Snail, Zeb1 등)을 억제(down-regulated)”. Further, in experiment [6], the “inhibition of cancer proliferation (cell number)” value was “어린 환자에게서 더 효과적으로 암의 증식을 억제하는 것을 확인할 수 있었다”. In addition, the “inhibition of FGFR signaling” value in experiment [7] is recorded as “FGFR 시그널링(예를 들면, PKC, MEK, p-ERK 등)을 억제”.

`CNC(=O)c1cc(Oc2ccc(NC(=O)Nc3ccc(Cl)c(C(F)(F)F)c3)cc2)ccn1` [Sorafenib, 4-[4-[[[[4-클로로-3-(트리플루오르메틸)페닐]아미노]카르복실]아미노]페녹시]-N-메틸-2-피리딘카르복사미드]: the pIC50 is 5.01 in experiment [1], 4.69 in experiment [2], 4.99 in experiment [4] and 4.76 in experiment [5]. Besides, the “effect on EMT protein expression” value in experiment [3] is given as “FGFR을 기반으로 하는 EMT 단백질 발현에 영향을 주지 않는”.
